Source: patent US10703761B2, “Bile acid receptor modulators and methods of use thereof” (City of Hope, priority 2016, dated 2020)

How the values were obtained:
[1] = system: metabolic nuclear receptors; test: Activation of metabolic nuclear receptors compared with native ligands; type: cell-based; settings: 10 μM
Method: FIG. 2(A) HEK293 cells lacking or overexpressing TGR5 were treated with increasing doses of berberine for 16 hours and TGR5-reporting activity was evaluated using luciferase assays. FIG. 2(B) Ability of berberine to activate metabolic nuclear receptors was evaluated in comparison to native ligands. All ligands were used at a 10 μM concentration.
Our current efforts are also aimed at extending these studies in vivo to murine type II diabetic models (using high fat diet feeding) with and without the TGR5 receptor. Confirmation of the berberine effect was evaluated using q-RT-PCR to assess activated TGR5 target genes including inflammatory gene expression and deiodinase-2.

[2] = oral 1.0 g/day/person for 3 months; cited from earlier work
FXR-RXR heterodimers = target: T1, FXR-RXR heterodimers (Homo sapiens, UniProt Q96RI1); test: Specific DNA binding by FXR-RXR heterodimers in vitro; type: biochemical; settings: data not shown
T1 sequence (Q96RI1 1-486): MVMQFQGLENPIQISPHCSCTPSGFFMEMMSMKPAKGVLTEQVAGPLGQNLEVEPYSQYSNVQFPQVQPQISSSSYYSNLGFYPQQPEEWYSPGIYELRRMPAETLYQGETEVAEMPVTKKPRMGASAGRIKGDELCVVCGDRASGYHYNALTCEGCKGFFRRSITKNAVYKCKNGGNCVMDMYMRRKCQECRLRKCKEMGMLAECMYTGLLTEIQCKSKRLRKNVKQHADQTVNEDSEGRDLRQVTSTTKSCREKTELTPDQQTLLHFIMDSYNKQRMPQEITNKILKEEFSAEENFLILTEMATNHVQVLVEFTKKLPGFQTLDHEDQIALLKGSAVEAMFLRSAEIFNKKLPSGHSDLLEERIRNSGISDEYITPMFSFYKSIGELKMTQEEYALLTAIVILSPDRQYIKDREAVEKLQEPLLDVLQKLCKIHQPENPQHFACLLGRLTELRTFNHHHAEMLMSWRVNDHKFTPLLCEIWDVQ
T1 sequence (P19793 1-462 partner): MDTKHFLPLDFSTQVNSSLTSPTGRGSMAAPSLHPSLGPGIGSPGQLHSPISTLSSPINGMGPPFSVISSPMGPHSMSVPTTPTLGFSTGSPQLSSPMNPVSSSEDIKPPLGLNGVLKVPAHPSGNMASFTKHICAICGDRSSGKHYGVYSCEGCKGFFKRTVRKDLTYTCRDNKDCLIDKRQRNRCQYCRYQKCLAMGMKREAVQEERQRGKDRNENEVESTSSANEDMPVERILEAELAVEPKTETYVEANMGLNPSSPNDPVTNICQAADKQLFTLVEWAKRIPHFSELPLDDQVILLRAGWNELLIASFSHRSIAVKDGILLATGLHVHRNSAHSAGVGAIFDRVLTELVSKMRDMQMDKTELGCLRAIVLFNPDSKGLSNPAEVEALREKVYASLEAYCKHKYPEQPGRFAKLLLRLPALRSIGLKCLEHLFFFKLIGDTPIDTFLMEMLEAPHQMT

FXR = target: T2, FXR (Homo sapiens, UniProt Q96RI1); test: FXR luciferase reporter assay, transient transfection with a synthetic FXR responsive reporter plasmid in HEK293 cells; type: cell-based; settings: compound alone, compared with GW4064
T2 construct: expressed in transfected cells; host or cells: HEK293 (transient)
T2 sequence (Q96RI1 1-486): T1 sequence (Q96RI1 1-486)
T2 sequence (P19793 1-462 partner): T1 sequence (P19793 1-462 partner)
Method: Effect of berberine derivatives and γ-aminobutyric acid derivative on FXR inhibition was initially assessed using transient transfections with a synthetic FXR responsive reporter plasmid. HEK 293 Cells were treated with vehicle alone or 100 μM CDCA with or without compounds, as indicated. Results are luciferase expression normalized using the β-gal internal control.
TGR5-reporting activity was evaluated by luciferase assay. Treatments were performed in quadruplicate and normalized with β-galactosidase. HEK293 cells were transfected with FXR and RXRα, and FXRE-containing luciferase construct. Cells were treated with 10 μM of indicated compounds; luciferase was measured and normalized with β-galactosidase.
To evaluate TGR5 activity of compounds, cells were transfected 100 ng pCRE-luc reporter along with pCMV-galactosidase (10 ng) as an internal control for normalization of transfection efficiency. Plasmids were complexed with […] of Fugene 6 reagent (Promega, Madison, Wis.) in OptiMEM (Invitrogen, Carlsbad, Calif.) and cells were transfected for 18 h. The following day, cells were treated with vehicle and appropriate ligand as indicated. Luciferase and β-galactosidase activities were assayed 6 h later using Luciferase Assay System (Promega) and Galacto-Star (Applied Biosystems, Foster City, Calif.) reagents, respectively, and a MLX luminometer (Dynex Technologies, Chantilly, Va.). To evaluate the FXR activity of compounds, HEK293 cells were transfected with 25 ng of farnesoid X receptor expression plasmid (pCMX-hFXR), 25 ng of retinoid X receptor expression plasmid (pCMXhRXR), 100 ng of reporter plasmid (pEcREx6-TK-Luc), and 10 ng of pCMV-b-galactosidase as an internal control in each well, using Fugene 6 reagent. Approximately 18 h after transfection, cells were incubated for 12 h with different concentrations of each.

[3] = target: T3, Gal4 DNA binding domain FXR ligand-binding domain fusion protein (Homo sapiens, UniProt Q96RI1); test: Gal4 DBD-FXR LBD chimera transactivation assay in HEK 293 cells; type: cell-based; settings: CDCA 100 μM, compounds 10 μM
T3 construct: expressed in transfected cells; host or cells: HEK 293
T3 sequence (Q96RI1 262-486 limits assumed): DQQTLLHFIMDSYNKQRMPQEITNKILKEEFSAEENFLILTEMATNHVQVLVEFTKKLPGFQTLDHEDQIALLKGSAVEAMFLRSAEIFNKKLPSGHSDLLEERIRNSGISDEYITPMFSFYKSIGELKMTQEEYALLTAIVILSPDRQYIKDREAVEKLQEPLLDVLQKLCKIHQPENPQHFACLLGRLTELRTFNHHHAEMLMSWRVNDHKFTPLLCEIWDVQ
Method: FIG. 10: Berberine derivatives inhibit FXR transactivation. HEK 293 cells were cotransfected with a luciferase reporter plasmid containing five copies of the Gal4 binding site and an expression vector for a Gal4 DNA binding domain FXR ligand-binding domain fusion protein, along with a CMX-β-gal internal control. CDCA: 100 μM, Compounds: 10 μM
In the presence of 100 μM CDCA, a concentration approximately threefold above that required for half-maximal activation of FXR, 10 μM selected berberine derivatives decreased FXR transactivation by nearly 50%.

COc1ccc2cc3[n+](cc2c1OC)CCc1cc2c(cc1-3)OCO2 [berberine]
Activation of other metabolic nuclear receptors [1]: does not activate other metabolic nuclear receptors
Efficacy and safety in type 2 diabetes and dyslipidemia [2]: effective and safe
Specific DNA binding by FXR-RXR heterodimers (FXR-RXR heterodimers): did not affect specific DNA binding
FXR activity of compound alone (agonism) (FXR): failed to activate FXR
FXR activity of compound alone (agonism) (FXR; listed as Berberine): no effect on FXR activity
Transactivation by GAL4 DBD-FXR LBD chimera [3]: did inhibit transactivation
